Experimental data taken from US20230285383A1, “TREATMENT OF SKIN DISEASES” (Ichilov Tech Ltd., priority 2020, published 2023).

Assays:
SAMD9 [1] = test: SAMD9 expression by qRT-PCR in primary fibroblasts; type: cell-based, human
Procedure: Primary fibroblasts were isolated from human adult skin and were grown in High Glucose DMEM, 10% Fetal Bovine Serum, L-glutamine and Pen-Strep. Medium was changed every 2-3 days. Cells were used at passage 2-3.
(§1) Of note, when cells were incubated with CPT and CPT-11, they were grown in the appropriate medium with 0.1% FCS only.
(§2) RNA was extracted from cell cultures using an RNA extraction kit (Roche Diagnostics, Mahheim, Germany). cDNA was synthesized from 500 ng of total RNA using the Verso cDNA kit (Thermo Fisher Scientific, Waltham, Mass., USA) or qScript kit (Quanta Biosciences, Gaithersburg, Md., USA). cDNA PCR amplification was carried out using the Fast SYBR Green Master Mix in a StepOnePlus™ Real-Time PCR System (Applied Biosystems, Foster City, Calif., USA) with gene-specific intron-crossing oligonucleotide pairs listed in Table 1 (below). For quantification, standard curves were obtained using serially diluted cDNA amplified in the same qRT-PCR run. The melting temperature (Tm) of the amplified products was measured to confirm the specificity of the reaction conditions. […] Each sample was analyzed in triplicate. mRNA expression level for target gene was normalized to GAPDH. The results are based the amount of target, normalized to an endogenous reference (IACTB) and relative to a calibrator, as calculated by 2-ΔΔCT. […]
SAMD9 expression was measured via qRT-PCR, in triplicates. […]

human psoriatic skin = test: Chimeric mice carrying human psoriatic skin; type: in vivo, SCID mice; settings: i.p., 10 days; CPT 3 mg/kg five times a week; CPT-11 30 or 50 mg/kg three times a week
Description: (§3) Chimeric mice carrying human psoriatic skin were generated using SCID mice, 2-3 months of age. Animals were maintained in a pathogen-free animal facility. A psoriasis-like phenotype was induced in normal human skin grafted onto the mice by intradermal injection of natural killer/T cells derived from psoriatic patients as previously described [Gilhar A et al. J Invest Dermatol (2011) 131: 118-124].
(§4) Formaldehyde-fixed 5-μm paraffin-embedded sections from skin biopsies were deparaffinized and treated with 3% H2O2 in methanol for 15 minutes at room temperature, warmed in a microwave oven in citrate buffer in a pressure cooker for 25 minutes, and stained with a monoclonal anti-Ki67 antibody (Thermo Scientific) for 1 hour at room temperature. Following 3 washings (10 minutes each) with phosphate-buffered saline (PBS), the antibodies were imaged using the ABC technique (Zymed Laboratories, South San Francisco, Calif.) and the slides were counterstained with hematoxylin.
(§5) Epidermal thickness was defined as the distance between the granular layer and the basement membrane and was measured at 10 randomly selected locations for each biopsy using NIS-Elements BR 3.2 software (Nikon, NY USA). An image was taken and was manually measured in the software by selecting an upper and lower border, as defined above. The distance was measured in microns.
To assess the potential therapeutic role of the compounds of some embodiments of the invention, the two compounds were administered systemically (i.p) to chimeric mice carrying human psoriatic skin.
as §3, with “In short,” for “Chimeric mice carrying human psoriatic skin were generated using”, “age,” for “age. Animals”
Two weeks after natural killer/T-cell injection (6 weeks after human skin grafting), mice were injected i.p. five times a week. Five groups of mice were treated as follows: one group of mice was injected five times a week with the vehicle (10% DMSO in […] was used as a vehicle control); a second group of mice was injected five times a week CPT (3 mg/kg); a third group of mice was injected three times a week CPT-11 (50 mg/kg); a fourth group of mice was injected three times a week CPT-11 (30 mg/kg); and a fifth group of mice, was treated with dexamethasone (DEX) cream applied 5 times a week on the graft, as positive control (DEX was expected to attenuate inflammation in this model). Each group included six mice, and the treatment was performed for a total of 10 days. The grafts were harvested from the five groups of mice, paraffin-embedded, stained for hematoxylin and eosin (H&E), analyzed and scored for the average improvement of the clinical and histological psoriasiform phenotype.

HeLa cells = test: RNA sequence analysis of HeLa cells treated with CPT; type: cell-based, human; settings: 10 μM, 48 hours
Procedure: FIG. 10A presents RNA-seq analysis of HeLa cells treated with CPT. HeLa cells were treated with 10 μM CPT or DMSO for 48 hours (three independent experiments). Total RNA was extracted and sent to RNA-seq. Volcano plot represents the number of genes that were differentially expressed. […] P-value for enrichment for genes belongs to a known psoriasis related pathogenic pathways (taken from IPA database) was calculated using hypergeometric distribution (using a background of 24190 genes).
HeLa cells were treated with 10 μM CPT or DMSO for 48 hours (three independent experiments). Total RNA was extracted and sent to RNA-sequencing.
The obtained data is presented in FIGS. 10A-B. FIG. 10A presents a volcano plot that show the number of statistically significant differential gene (DE) as response to CPT treatment. […] In addition, calculation of p-value for enrichment for genes belongs to a known psoriasis related pathogenic pathways (taken from IPA database) using hypergeometric distribution (using a background of 24190 genes). The table in FIG. 10B summarizes the number of genes in each group, the number of differentially expressed genes, the overlap, and the adjusted p-value (after correcting for multiple testing).

SAMD9 [2] = test: SAMD9 expression by qRT-PCR in TERC-transformed fibroblasts; type: cell-based, human; settings: 5 μM, 24 hours, relative to DMSO
Procedure: TERC-transformed fibroblasts were transformed with a pBABE-H2AGFP construct containing the human telomerase gene were cultured High Glucose DMEM, 10% FCS, L-glutamine and Pen-Strep (all cell culture regents from Biological Industries, Israel). Medium was changed every 2-3 days. Cells were used at passage 2-3.
as §1
as §2, with “GAPDH. […]” for “GAPDH.”, “expression levels” for “results are based the amount”, “target genes were expressed as mRNA” for “target, normalized to an endogenous reference (IACTB) and”, “units.” for “to a calibrator, as calculated by 2-ΔΔCT.”

EGR1 = EGR1 expression by qRT-PCR in Hela cells; type: cell-based, human
Procedure: (§6) HeLa cells were cultured in DMEM 4.5 g/l glucose medium containing 10% FCS, 1% L-glutamine and 1% penicillin and streptomycin (Biological Industries) and grown at 37° C. and 5% CO2.
as §1
(§7) RNA was extracted from cell cultures using an RNA extraction kit (Roche Diagnostics, Mahheim, Germany). cDNA was synthesized from 500 ng of total RNA using the Verso cDNA kit (Thermo Fisher Scientific, Waltham, Mass., USA) or qScript kit (Quanta Biosciences, Gaithersburg, Md., USA). cDNA PCR amplification was carried out using the Fast SYBR Green Master Mix in a StepOnePlus™ Real-Time PCR System (Applied Biosystems, Foster City, Calif., USA) with gene-specific intron-crossing oligonucleotide pairs listed in Table 1 (below). For quantification, standard curves were obtained using serially diluted cDNA amplified in the same qRT-PCR run. The melting temperature (Tm) of the amplified products was measured to confirm the specificity of the reaction conditions. […] Each sample was analyzed in triplicate. mRNA expression level for target gene was normalized to GAPDH. The results are based the amount of target, normalized to an endogenous reference (IACTB) and relative to a calibrator, as calculated by 2-ΔΔCT. […] The expression levels of target genes were expressed as mRNA relative units. […]

SAMD9 [3] = test: SAMD9 expression by qRT-PCR in HeLa cells; type: cell-based, human
Procedure: as §6, §1, §7

[4] = system: imiquimod-induced psoriasiform dermatitis; test: Imiquimod-induced psoriasiform dermatitis in mice; type: in vivo, Balb/c mice; settings: 7.5 mg/Kg i.p., biopsies at day 6, vs vehicle
Procedure: Balb/c mice (Harlan Laboratories Ltd, Jerusalem, Israel), 9 weeks of age, were maintained in a pathogen-free animal facility. Animal care and research protocols had been approved by the institutional committee for animal use. Imiquimod 5% (Perrigo, Israel) was topically applied to the mice on their upper backs.
as §4
as §5, with “microns. […]” for “microns.”

[5] = Hela cells, 1-10 μM for 48 hours, or 10 μM for 48 and 72 hours

| Structure (SMILES) | SAMD9 expression, dose dependence (SAMD9 [1]; 1 μM, 2 μM, 5 μM and 10 μM) | SAMD9 expression (SAMD9 [1]; 5 μM, 24 hours, relative to DMSO) | clinical and histological psoriasiform phenotype (human psoriatic skin) | epidermal thickness (human psoriatic skin) | inflammation index (human psoriatic skin) | keratinocyte proliferation (Ki67) (human psoriatic skin) | expression of genes of psoriasis related pathways (HeLa cells; enrichment by hypergeometric distribution) | number of genes downregulated (HeLa cells; vs DMSO, FDR<0.01) | number of genes upregulated (HeLa cells; vs DMSO, FDR<0.01) | SAMD9 expression (SAMD9 [2]) | EGR1 expression (EGR1; 10 μM, 24, 48 and 72 hours, result sentence prints primary fibroblast cells, method Hela cells) | SAMD9 expression (SAMD9 [3]; HeLa cells, 5 μM, 24 hours, relative to DMSO) | epidermal thickness [4] | index of proliferation (Ki67) [4] | EGR1 expression (EGR1; [5]) | SAMD9 expression (SAMD9 [3]; [5]) |
| --- | --- | --- | --- | --- | --- | --- | --- | --- | --- | --- | --- | --- | --- | --- | --- | --- |
| CC[C@@]1(O)C(=O)OCc2c1cc1n(c2=O)Cc2cc3ccccc3nc2-1 [CPT, Camptothecin] | up-regulate SAMD9 expression in a dose dependent manner | significant induction of SAMD9 expression | significant clinical and histological attenuation of the psoriasiform phenotype | significant decrease | significant decrease | significant decrease | significant turnover in expression of many genes belongs to psoriasis related pathways | 1192 | 1664 | significant induction of SAMD9 expression | significantly down-regulated EGR1 expression | significant induction of SAMD9 expression | decrease in epidermal thickness | decrease |  |  |
| CCc1c2c(nc3ccc(OC(=O)N4CCC(N5CCCCC5)CC4)cc13)-c1cc3c(c(=O)n1C2)COC(=O)[C@]3(O)CC [CPT-11, Irinotecan] |  |  | significant clinical and histological attenuation of the psoriasiform phenotype | significant decrease | significant decrease | significant decrease |  |  |  |  |  |  |  |  | substantial down-regulation of EGR1 | substantial induction of SAMD9 expression |
